The source made the active and inactive calls. The rule behind the calls is not given here.
How the values were obtained:
Rattus norvegicus [1] = experiment: Antiarthritic activity against MSU-induced Sprague-Dawley rat OA model assessed as inflammation index at 10 mg/kg, ig administered for 3 days; assay type: functional; conditions: time 3 day
[2] = molecular target: T1, Xanthine dehydrogenase/oxidase (Homo sapiens, UniProt P47989); experiment: Inhibition of XOD (unknown origin) using xanthine as substrate at 1 uM preincubated for 30 mins followed by xanthine addition measured after 30 mins by microplate reader relative to control; conditions: 0.5 h, time 60 min
T1 sequence (P47989 whole entry): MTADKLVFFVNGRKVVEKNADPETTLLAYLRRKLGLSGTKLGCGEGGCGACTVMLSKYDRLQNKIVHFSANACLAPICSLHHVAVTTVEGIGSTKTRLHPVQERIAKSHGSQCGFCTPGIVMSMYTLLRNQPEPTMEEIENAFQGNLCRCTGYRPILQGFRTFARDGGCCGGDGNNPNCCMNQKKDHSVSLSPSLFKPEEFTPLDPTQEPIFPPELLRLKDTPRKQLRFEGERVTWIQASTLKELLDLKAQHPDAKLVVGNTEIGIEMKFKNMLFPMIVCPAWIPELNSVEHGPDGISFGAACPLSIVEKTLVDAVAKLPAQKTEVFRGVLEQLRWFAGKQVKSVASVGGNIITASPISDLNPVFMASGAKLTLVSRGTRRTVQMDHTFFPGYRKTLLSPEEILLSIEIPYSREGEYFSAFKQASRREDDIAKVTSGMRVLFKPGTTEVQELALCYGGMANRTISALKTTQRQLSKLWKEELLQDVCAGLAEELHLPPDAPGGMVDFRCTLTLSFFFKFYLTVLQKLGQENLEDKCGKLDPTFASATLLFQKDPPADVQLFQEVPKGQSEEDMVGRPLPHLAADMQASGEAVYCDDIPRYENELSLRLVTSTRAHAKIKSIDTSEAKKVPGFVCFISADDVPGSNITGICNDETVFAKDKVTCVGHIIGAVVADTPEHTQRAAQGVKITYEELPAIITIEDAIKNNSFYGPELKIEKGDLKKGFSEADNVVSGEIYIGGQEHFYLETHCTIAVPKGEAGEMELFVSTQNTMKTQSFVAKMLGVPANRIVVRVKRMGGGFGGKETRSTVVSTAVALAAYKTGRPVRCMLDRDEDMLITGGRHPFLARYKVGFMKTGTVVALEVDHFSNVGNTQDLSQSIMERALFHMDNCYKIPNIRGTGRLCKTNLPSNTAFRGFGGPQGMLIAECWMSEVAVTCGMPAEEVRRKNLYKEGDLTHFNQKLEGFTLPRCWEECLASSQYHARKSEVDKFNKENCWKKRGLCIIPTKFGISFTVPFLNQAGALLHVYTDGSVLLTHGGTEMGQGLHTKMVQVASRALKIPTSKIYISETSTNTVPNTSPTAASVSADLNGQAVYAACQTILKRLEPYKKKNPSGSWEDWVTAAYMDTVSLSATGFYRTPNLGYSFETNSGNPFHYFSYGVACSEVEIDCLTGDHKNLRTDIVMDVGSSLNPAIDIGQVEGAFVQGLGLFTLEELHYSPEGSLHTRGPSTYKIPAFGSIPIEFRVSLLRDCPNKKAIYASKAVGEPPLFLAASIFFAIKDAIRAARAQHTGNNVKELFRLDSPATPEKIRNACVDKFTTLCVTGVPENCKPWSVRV

[3] = molecular target: T1, Xanthine dehydrogenase/oxidase; experiment: Inhibition of XOD (unknown origin) using xanthine as substrate preincubated for 30 mins followed by xanthine addition measured after 30 mins by microplate reader
Mus musculus [4] = experiment: Hypouricemic activity in hypoxanthine/potassium oxonate-induced hyperuricemic Kunming mouse model assessed as decrease in serum uric acid level at 5 to 20 mg/kg, po administered for 7 days measured 4 hrs post last dose by biochemical analyzer; assay type: functional, organism-based; conditions: dose 5-20 mg/kg, time 7.0 day
Mus musculus [5] = experiment: Hypouricemic activity in hypoxanthine/potassium oxonate-induced hyperuricemic Kunming mouse model assessed as decrease in uric acid level in urine at 5 to 20 mg/kg, po administered for 7 days measured 4 hrs post last dose by automatic biochemical analyzer; assay type: functional, organism-based; conditions: dose 5-20 mg/kg, time 7.0 day
Mus musculus [6] = experiment: Hypouricemic activity in hypoxanthine/potassium oxonate-induced hyperuricemic Kunming mouse model assessed as decrease in serum XOD level at 5 to 20 mg/kg, po administered for 7 days measured 4 hrs post last dose by automatic biochemical analyzer; assay type: functional, organism-based; conditions: dose 5-20 mg/kg, time 7.0 day
Mus musculus [7] = experiment: Hypouricemic activity in hypoxanthine/potassium oxonate-induced hyperuricemic Kunming mouse model assessed as decrease in liver XOD level at 5 to 20 mg/kg, po administered for 7 days measured 4 hrs post last dose by automatic biochemical analyzer; assay type: functional, organism-based; conditions: dose 5-20 mg/kg, time 7.0 day
RAW264.7 [8] = experiment: Antiinflammatory activity in MSU-induced mouse RAW264.7 cells assessed as decrease in TNF-alpha expression preincubated for 2 hrs followed by MSU stimulation and measured after 12 hrs by ELISA; assay type: functional, cell-based; conditions: dose 1-10 µM, time 14.0 hrs
RAW264.7 [9] = experiment: Antiinflammatory activity in MSU-induced mouse RAW264.7 cells assessed as decrease in IL-1beta expression preincubated for 2 hrs followed by MSU stimulation and measured after 12 hrs by ELISA; assay type: functional, cell-based; conditions: dose 1-10 µM, time 14.0 hrs
RAW264.7 [10] = experiment: Antiinflammatory activity in MSU-induced mouse RAW264.7 cells assessed as decrease in TNF-alpha mRNA expression at 1 to 10 uM preincubated for 2 hrs followed by MSU stimulation and measured after 12 hrs by qRT-PCR analysis; assay type: functional, cell-based; conditions: dose 1-10 µM, time 14.0 hrs
RAW264.7 [11] = experiment: Antiinflammatory activity in MSU-induced mouse RAW264.7 cells assessed as decrease in IL-1beta mRNA expression at 1 to 10 uM preincubated for 2 hrs followed by MSU stimulation and measured after 12 hrs by qRT-PCR analysis; assay type: functional, cell-based; conditions: dose 1-10 µM, time 14.0 hrs
Rattus norvegicus [12] = experiment: Antiarthritic activity against MSU-induced Sprague-Dawley rat OA model assessed as reduction of serum TNF-alpha protein expression level at 5 to 20 mg/kg, ig administered for 3 days by ELISA; assay type: functional, organism-based; conditions: dose 5-20 mg/kg, time 3.0 day
Rattus norvegicus [13] = experiment: Antiarthritic activity against MSU-induced Sprague-Dawley rat OA model assessed as reduction of serum IL-1beta protein expression level at 5 to 20 mg/kg, ig administered for 3 days by ELISA; assay type: functional, organism-based; conditions: dose 5-20 mg/kg, time 3.0 day
Rattus norvegicus [14] = experiment: Antiarthritic activity against MSU-induced Sprague-Dawley rat OA model assessed as reduction of serum IL-1beta protein expression level at 10 mg/kg, ig administered for 3 days by ELISA; assay type: functional, organism-based; conditions: time 3.0 day
Rattus norvegicus [15] = experiment: Antiarthritic activity against MSU-induced Sprague-Dawley rat OA model assessed as inflammation index at 5 mg/kg, ig administered for 3 days; assay type: functional; conditions: time 3 day
Rattus norvegicus [16] = experiment: Antiarthritic activity against MSU-induced Sprague-Dawley rat OA model assessed as dysfunction index at 5 mg/kg, ig administered for 3 days; assay type: functional; conditions: time 3 day
Rattus norvegicus [17] = experiment: Antiarthritic activity against MSU-induced Sprague-Dawley rat OA model assessed as toe swelling volume variation at 5 mg/kg, ig administered for 3 days; assay type: functional; conditions: time 3 day
Rattus norvegicus [18] = experiment: Antiarthritic activity against MSU-induced Sprague-Dawley rat OA model assessed as dysfunction index at 10 mg/kg, ig administered for 3 days; assay type: functional; conditions: time 3 day
Rattus norvegicus [19] = experiment: Antiarthritic activity against MSU-induced Sprague-Dawley rat OA model assessed as toe swelling volume variation at 10 mg/kg, ig administered for 3 days; assay type: functional; conditions: time 3 day
Rattus norvegicus [20] = experiment: Antiarthritic activity against MSU-induced Sprague-Dawley rat OA model assessed as inflammation index at 20 mg/kg, ig administered for 3 days; assay type: functional; conditions: time 3 day
Rattus norvegicus [21] = experiment: Antiarthritic activity against MSU-induced Sprague-Dawley rat OA model assessed as dysfunction index at 20 mg/kg, ig administered for 3 days; assay type: functional; conditions: time 3 day
Rattus norvegicus [22] = experiment: Antiarthritic activity against MSU-induced Sprague-Dawley rat OA model assessed as toe swelling volume variation at 20 mg/kg, ig administered for 3 days; assay type: functional; conditions: time 3 day
Rattus norvegicus [23] = experiment: Antiarthritic activity against MSU-induced Sprague-Dawley rat OA model assessed as dysfunction index at 1 mg/kg, ig administered for 3 days; assay type: functional, organism-based; conditions: time 3.0 day
Rattus norvegicus [24] = experiment: Antiarthritic activity against MSU-induced Sprague-Dawley rat OA model assessed as toe swelling volume variation at 1 mg/kg, ig administered for 3 days; assay type: functional, organism-based; conditions: time 3.0 day
Rattus norvegicus [25] = experiment: Antiarthritic activity against MSU-induced Sprague-Dawley rat OA model assessed as reduction in NLRP3 mRNA expression level in tissue joint at 5 to 20 mg/kg, ig administered for 3 days by qRT-PCR analysis; assay type: functional, organism-based; conditions: dose 5-20 mg/kg, time 3.0 day
Rattus norvegicus [26] = experiment: Antiarthritic activity against MSU-induced Sprague-Dawley rat OA model assessed as reduction in ASC mRNA expression level in tissue joint at 5 to 20 mg/kg, ig administered for 3 days by qRT-PCR analysis; assay type: functional, organism-based; conditions: dose 5-20 mg/kg, time 3.0 day
Rattus norvegicus [27] = experiment: Antiarthritic activity against MSU-induced Sprague-Dawley rat OA model assessed as reduction in caspase-1 mRNA expression level in tissue joint at 5 to 20 mg/kg, ig administered for 3 days by qRT-PCR analysis; assay type: functional, organism-based; conditions: dose 5-20 mg/kg, time 3.0 day
Rattus norvegicus [28] = experiment: Antiarthritic activity against MSU-induced Sprague-Dawley rat OA model assessed as inflammation index at 1 mg/kg, ig administered for 3 days; assay type: functional, organism-based; conditions: time 3.0 day
[29] = molecular target: T2, Solute carrier family 2, facilitated glucose transporter member 9 (Homo sapiens) (UniProt Q9NRM0); experiment: Inhibition of GLUT9 (unknown origin) expressed in HEK293T cells assessed as effect on uric acid induced current at 10 uM; assay type: cell-based
T2 sequence (whole entry): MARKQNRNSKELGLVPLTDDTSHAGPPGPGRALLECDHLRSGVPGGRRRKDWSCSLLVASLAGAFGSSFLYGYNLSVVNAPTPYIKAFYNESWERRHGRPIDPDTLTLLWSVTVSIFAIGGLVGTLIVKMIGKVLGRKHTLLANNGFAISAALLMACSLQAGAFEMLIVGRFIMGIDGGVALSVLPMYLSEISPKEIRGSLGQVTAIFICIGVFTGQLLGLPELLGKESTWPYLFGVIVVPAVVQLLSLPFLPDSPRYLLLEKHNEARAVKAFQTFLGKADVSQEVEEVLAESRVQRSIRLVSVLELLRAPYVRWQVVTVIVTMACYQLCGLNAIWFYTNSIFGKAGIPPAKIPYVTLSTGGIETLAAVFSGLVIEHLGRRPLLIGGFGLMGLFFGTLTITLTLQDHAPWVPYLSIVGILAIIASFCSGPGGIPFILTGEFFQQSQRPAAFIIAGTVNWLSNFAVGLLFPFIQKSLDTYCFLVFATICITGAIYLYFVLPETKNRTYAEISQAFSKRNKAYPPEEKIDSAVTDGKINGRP

[30] = molecular target: T3, Solute carrier family 22 member 12 (Homo sapiens, UniProt Q96S37); experiment: Inhibition of URAT1 (unknown origin) expressed in HEK293T cells assessed as reduction in 14C-uric acid uptake at 10 uM; assay type: cell-based
T3 sequence (Q96S37 whole entry): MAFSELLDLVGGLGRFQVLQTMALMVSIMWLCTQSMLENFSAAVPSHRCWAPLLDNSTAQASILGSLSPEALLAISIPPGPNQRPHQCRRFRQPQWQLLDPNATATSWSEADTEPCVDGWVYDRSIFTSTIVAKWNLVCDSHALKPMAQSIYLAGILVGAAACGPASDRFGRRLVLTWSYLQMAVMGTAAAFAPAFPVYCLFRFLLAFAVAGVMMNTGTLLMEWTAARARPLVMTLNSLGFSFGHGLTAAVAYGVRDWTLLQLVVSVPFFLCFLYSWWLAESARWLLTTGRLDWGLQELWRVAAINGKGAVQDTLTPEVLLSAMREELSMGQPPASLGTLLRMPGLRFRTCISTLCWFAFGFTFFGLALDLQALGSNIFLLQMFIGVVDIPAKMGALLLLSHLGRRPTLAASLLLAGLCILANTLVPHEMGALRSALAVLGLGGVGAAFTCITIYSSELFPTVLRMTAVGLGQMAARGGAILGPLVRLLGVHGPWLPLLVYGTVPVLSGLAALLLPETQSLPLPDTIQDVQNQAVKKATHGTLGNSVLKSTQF

Rattus norvegicus [31] = experiment: Antiarthritic activity against MSU-induced Sprague-Dawley rat OA model assessed as reduction of serum TNF-alpha protein expression level at 10 mg/kg, ig administered for 3 days by ELISA; assay type: functional, organism-based; conditions: time 3.0 day
Rattus norvegicus [32] = experiment: Antiarthritic activity against MSU-induced Sprague-Dawley rat OA model assessed as reduction in NLRP3 mRNA expression level in tissue joint at 10 mg/kg, ig administered for 3 days by qRT-PCR analysis; assay type: functional, organism-based; conditions: time 3.0 day
Rattus norvegicus [33] = experiment: Antiarthritic activity against MSU-induced Sprague-Dawley rat OA model assessed as reduction in ASC mRNA expression level in tissue joint at 10 mg/kg, ig administered for 3 days by qRT-PCR analysis; assay type: functional, organism-based; conditions: time 3.0 day
Rattus norvegicus [34] = experiment: Antiarthritic activity against MSU-induced Sprague-Dawley rat OA model assessed as reduction in Caspase-1 mRNA expression level in tissue joint at 10 mg/kg, ig administered for 3 days by qRT-PCR analysis; assay type: functional, organism-based; conditions: time 3.0 day
Mus musculus [35] = experiment: Hypouricemic activity in hypoxanthine/potassium oxonate-induced hyperuricemic Kunming mouse model assessed as decrease in serum XOD level at 10 mg/kg, po administered for 7 days measured 4 hrs post last dose by automatic biochemical analyzer; assay type: functional, organism-based; conditions: time 7.0 day
Mus musculus [36] = experiment: Hypouricemic activity in hypoxanthine/potassium oxonate-induced hyperuricemic Kunming mouse model assessed as decrease in liver XOD level at 10 mg/kg, po administered for 7 days measured 4 hrs post last dose by automatic biochemical analyzer; assay type: functional, organism-based; conditions: time 7.0 day

CC(C)=CCc1c(O)cc(-c2cc3ccc(O)cc3o2)cc1O [MORACIN C]
Activity_index (Rattus norvegicus [1]): 1 | inhibition at 1 µM [2]: 70% | IC50 [3]: 250 nM | Activity (Mus musculus [4]): Active | Activity (Mus musculus [5]): inactive | Activity (Mus musculus [6]): Active | Activity (Mus musculus [7]): Active | Activity (RAW264.7 [8]): Dose-Dependent Effect | Activity (RAW264.7 [9]): Dose-Dependent Effect | Activity (RAW264.7 [10]): Active | Activity (RAW264.7 [11]): Active | Activity (Rattus norvegicus [12]): Active | Activity (Rattus norvegicus [13]): Active | Activity (Rattus norvegicus [14]): Active | Activity_index (Rattus norvegicus [15]): 1 | Activity_index (Rattus norvegicus [16]): 0 | Activity (Rattus norvegicus [17]): 0.16 mL | Activity_index (Rattus norvegicus [18]): 0 | Activity (Rattus norvegicus [19]): 0.1 mL | Activity_index (Rattus norvegicus [20]): 0.6 | Activity_index (Rattus norvegicus [21]): 0 | Activity (Rattus norvegicus [22]): 0.06 mL | Activity (Rattus norvegicus [23]): Active | Activity (Rattus norvegicus [24]): Active | Activity (Rattus norvegicus [25]): Active | Activity (Rattus norvegicus [26]): Active | Activity (Rattus norvegicus [27]): Active | Activity (Rattus norvegicus [28]): Active | inhibition [29]: inactive | inhibition (INH) [30]: Not Active

COc1cc2c(c(OC)c1OC)-c1ccc(OC)c(=O)cc1[C@@H](NC(C)=O)CC2 [COLCHICINE]
Activity_index (Rattus norvegicus [1]): 0.6 | Activity (Rattus norvegicus [31]): Active | Activity_index (Rattus norvegicus [18]): 0 | Activity (Rattus norvegicus [19]): 0.03 mL | Activity (Rattus norvegicus [23]): Active | Activity (Rattus norvegicus [24]): Active | Activity (Rattus norvegicus [32]): Active | Activity (Rattus norvegicus [33]): Active | Activity (Rattus norvegicus [34]): Active | Activity (Rattus norvegicus [28]): Active

CC1(C)C=Cc2c(O)cc(-c3cc4ccc(O)cc4o3)cc2O1 [MORACIN D]
inhibition at 1 µM [2]: 32% | IC50 [3]: 5100 nM

CC1(C)C=Cc2cc(-c3cc(=O)c4c(O)cc(O)cc4o3)ccc2O1
inhibition at 1 µM [2]: < 20%

COc1cc(O)c2c(=O)cc(-c3cc(OC)c(OC)c(OC)c3)oc2c1 [CORYMBOSIN]
inhibition at 1 µM [2]: < 20%

Cc1nc(-c2ccc(OCC(C)C)c(C#N)c2)sc1C(=O)O [FEBUXOSTAT]
inhibition at 1 µM [2]: 75% | IC50 [3]: 160 nM | Activity (Mus musculus [35]): Active | Activity (Mus musculus [36]): Active
